Test results from PubChem BioAssay (NCI).
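48-hour exposure; five concentrations; linearly interpolated endpoints. GI50 is the concentration that inhibits growth by half. TGI marks complete inhibition of growth.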

Key:
Test in all cases: NCI-60 cell line screen, 48 h
[1] = test system: RXF 393 renal
[2] = test system: PC-3 prostate
[3] = test system: M14 melanoma
[4] = test system: NCI-H226 lung
[5] = test system: ACHN renal
[6] = test system: CCRF-CEM leukemia
[7] = test system: SK-MEL-5 melanoma
[8] = test system: HCT-15 colon
[9] = test system: SNB-19 CNS
[10] = test system: A549 NSCLC
[11] = test system: OVCAR-3 ovarian
[12] = test system: OVCAR-8 ovarian
[13] = test system: K-562 leukemia
[14] = test system: A498 renal
[15] = test system: NCI-H460 lung
[16] = test system: SK-OV-3 ovarian
[17] = test system: OVCAR-5 ovarian
[18] = test system: MCF7 breast
[19] = test system: DU-145 prostate
[20] = test system: SK-MEL-28 melanoma
[21] = test system: SW-620 colon
[22] = test system: MDA-MB-435
[23] = test system: MDA-MB-468 breast
[24] = test system: SNB-75 CNS
[25] = test system: U251 CNS
[26] = test system: HL-60(TB) leukemia
[27] = test system: HCT-116 colon
[28] = test system: IGROV1 ovarian
[29] = test system: T-47D breast
[30] = test system: BT-549 breast
[31] = test system: 786-0 renal
[32] = test system: OVCAR-4 ovarian
[33] = test system: SF-268 CNS
[34] = test system: UACC-257 melanoma
[35] = test system: MALME-3M melanoma
[36] = test system: SF-539 CNS
[37] = test system: NCI-H522 lung
[38] = test system: MOLT-4 leukemia
[39] = test system: HOP-62 NSCLC
[40] = test system: HOP-92 NSCLC
[41] = test system: SK-MEL-2 melanoma
[42] = test system: EKVX NSCLC
[43] = test system: SF-295 CNS
[44] = test system: SN12C renal
[45] = test system: HCC-2998 colon
[46] = test system: NCI-H23 lung
[47] = test system: TK-10 renal
[48] = test system: LOX IMVI melanoma
[49] = test system: RPMI-8226 leukemia
[50] = test system: HS 578T breast
[51] = test system: HT29 colon
[52] = test system: SR leukemia
[53] = test system: COLO 205 colon
[54] = test system: MDA-MB-231 breast
[55] = test system: UO-31 renal
[56] = test system: UACC-62 melanoma
[57] = test system: KM12 colon
[58] = test system: CAKI-1 renal

CN1CCN(Cc2ccc(C(=O)Nc3cccc(Nc4ccc5cc(O)ccc5n4)c3)cc2C(F)(F)F)CC1
GI50 [1]: 3.55 µM | TGI [1]: 15.7 µM | GI50 [2]: 4.68 µM | TGI [2]: 20.1 µM | GI50 [3]: 9.06 µM | TGI [3]: 23.5 µM | GI50 [4]: 16 µM | TGI [4]: 33.3 µM | GI50 [5]: 7.59 µM | TGI [5]: 23.1 µM | GI50 [6]: 3.48 µM | TGI [6]: 17.2 µM | GI50 [7]: 2.35 µM | TGI [7]: 6.4 µM | GI50 [8]: 2.09 µM | TGI [8]: 4.49 µM | GI50 [9]: 13.7 µM | TGI [9]: 27.5 µM | GI50 [10]: 8.7 µM | TGI [10]: 22.3 µM | GI50 [11]: 11.2 µM | TGI [11]: 23.4 µM | GI50 [12]: 13.2 µM | TGI [12]: 28.4 µM | GI50 [13]: 1.88 µM | TGI [13]: 4.51 µM | GI50 [14]: 22.5 µM | TGI [14]: 37.1 µM | GI50 [15]: 3.84 µM | TGI [15]: 15.2 µM | GI50 [16]: 16.5 µM | TGI [16]: 30.5 µM | GI50 [17]: 14.2 µM | TGI [17]: 27.7 µM | GI50 [18]: 2.46 µM | TGI [18]: 7.31 µM | GI50 [19]: 10.5 µM | TGI [19]: 22.3 µM | GI50 [20]: 1.79 µM | TGI [20]: 3.32 µM | GI50 [21]: 2.3 µM | TGI [21]: 4.57 µM | GI50 [22]: 8.53 µM | TGI [22]: 20.8 µM | GI50 [23]: 2.23 µM | TGI [23]: 6.47 µM | GI50 [24]: 0.656 µM | TGI [24]: 15.3 µM | GI50 [25]: 2.17 µM | TGI [25]: 6.49 µM | GI50 [26]: 2.58 µM | TGI [26]: 4.86 µM | GI50 [27]: 3.93 µM | TGI [27]: 15 µM | GI50 [28]: 16.6 µM | TGI [28]: 31.3 µM | GI50 [29]: 14.6 µM | TGI [29]: 32.2 µM | GI50 [30]: 12.2 µM | TGI [30]: 25.4 µM | GI50 [31]: 3.13 µM | TGI [31]: 10.9 µM | GI50 [32]: 11.2 µM | TGI [32]: 23.8 µM | GI50 [33]: 10.4 µM | TGI [33]: 23.8 µM | GI50 [34]: 7.35 µM | TGI [34]: 20.6 µM | GI50 [35]: 1.59 µM | TGI [35]: 3.15 µM | GI50 [36]: 1.98 µM | TGI [36]: 12.2 µM | GI50 [37]: 4.82 µM | TGI [37]: 17.5 µM | GI50 [38]: 3.52 µM | TGI [38]: 9.49 µM | GI50 [39]: 12.1 µM | TGI [39]: 24.9 µM | GI50 [40]: 3.39 µM | TGI [40]: 17 µM | GI50 [41]: 13.5 µM | TGI [41]: 26.4 µM | GI50 [42]: 14.2 µM | TGI [42]: 28.3 µM | GI50 [43]: 2.33 µM | TGI [43]: 5.64 µM | GI50 [44]: 14.1 µM | TGI [44]: 27.6 µM | GI50 [45]: 2.39 µM | TGI [45]: 5.22 µM | GI50 [46]: 13.9 µM | TGI [46]: 28.5 µM | GI50 [47]: 21.4 µM | TGI [47]: 35.8 µM | GI50 [48]: 1.73 µM | TGI [48]: 3.19 µM | GI50 [49]: 2.65 µM | TGI [49]: 7.1 µM | GI50 [50]: 4.17 µM | TGI [50]: 35.3 µM | GI50 [51]: 3.37 µM | TGI [51]: 12 µM | GI50 [52]: 2.68 µM | TGI [52]: 8.5 µM | GI50 [53]: 10.2 µM | TGI [53]: 23.8 µM | GI50 [54]: 2.54 µM | TGI [54]: 7.9 µM | GI50 [55]: 13.4 µM | TGI [55]: 27.3 µM | GI50 [56]: 15.4 µM | TGI [56]: 29.2 µM | GI50 [57]: 3.17 µM | TGI [57]: 10.9 µM | GI50 [58]: 11.9 µM | TGI [58]: 24.3 µM
